The source made the active and inactive calls. The rule behind the calls is not given here.
Legend:
[1] = Toxicity in VM/Dk mouse xenografted with mouse SMA-560 cells assessed as survival rate at 100 mg/kg,po daily (Rvb=13 to 20%); type: organism-based; conditions: in vivo
SMA-497 [2] = experiment: Induction of apoptosis in mouse SMA-497 cells assessed as early apoptotic cells at 0.1 uM incubated for 72 hrs by Annexin V-FITC/PI staining based flow cytometric analysis (reference value: 0.015%); type: functional
GL261 [3] = experiment: Antitumor activity against mouse GL261 cells xenografted in C57Bl/6 mouse assessed as tumor cell proliferation at 100 mg/kg,po daily by Ki67 staining based immunohistochemistry analysis; type: functional, organism-based
SMA-560 [4] = experiment: Anti-clonogenicic activity in mouse SMA-560 cells assessed as reduction in colony formation at 0.001 to 10 uM and measured after 10 days by MTT based clonogenic survival assay; type: functional, cell-based; conditions: dose 0.001-10 µM, time 10.0 day
SMA-540 [5] = experiment: Antitumor activity against mouse SMA-540 cells xenografted in VM/Dk mouse assessed as tumor cell proliferation at 100 mg/kg,po daily by Ki67 staining based immunohistochemistry analysis; type: functional, organism-based
SMA-560 [6] = experiment: Induction of apoptosis in mouse SMA-560 cells assessed as necrotic cells at 0.1 uM incubated for 72 hrs by Annexin V-FITC/PI staining based flow cytometric analysis (reference value: 13.5%); type: functional
SMA-560 [7] = experiment: Induction of cell cycle arrest in mouse SMA-560 cells assessed as accumulation at sub G1 phase at 0.1 uM incubated for 72 hrs by propidium iodide/RNase staining based flow cytomtery (Rvb= 2%); type: functional
SMA-497 [8] = experiment: In vivo inhibition of TIE-2 in VM/Dk mouse xenografted with mouse SMA-497 cells assessed as decrease in TIE-2 expression in brain blood vessels at 100 mg/kg,po daily with 12 Gy irradition after 2days of treatment initiation by immunohistochemistry analysis; type: functional, organism-based
SMA-560 [9] = experiment: Induction of cell cycle arrest in mouse SMA-560 cells assessed as accumulation at S phase at 0.1 uM incubated for 72 hrs by propidium iodide/RNase staining based flow cytomtery (Rvb= 2%); type: functional
[10] = Toxicity in VM/Dk mouse xenografted with mouse SMA-497 cells assessed as survival rate at 100 mg/kg,po daily with 12 Gy irradition after 2days of treatment initiation (Rvb=17%); type: organism-based; conditions: in vivo, 48 h
SMA-560 [11] = experiment: Anti-clonogenicic activity in mouse SMA-560 cells assessed as reduction in colony formation at 0.1 to 1 uM preincubated for 6 hrs followed by 1 to 9 Gy irradiation with and measured after 10 days by MTT based clonogenic survival assay; type: functional, cell-based; conditions: dose 0.1-1 µM, time 246.0 hrs
SMA-497 [12] = experiment: Antitumor activity against mouse SMA-497 cells xenografted in VM/Dk mouse assessed as increase in number of tumor-infiltrating CD11b positive monocytes/microglia in tumor at 100 mg/kg,po daily by immunohistochemistry analysis; type: functional, organism-based
Mus musculus = experiment: In vivo inhibition of Angiopoietin-1 stimulated TIE2 autophosphorylation in lungs of CB17/scid mouse at 25 to 100 mg/kg,po for 3 hrs with angiopoietin-1 stimulation during last 15 mins treatment by immunoblot analysis; type: functional, organism-based; conditions: Lung, dose 25-100 mg/kg
SMA-497 [13] = experiment: Induction of apoptosis in mouse SMA-497 cells assessed as live cells at 0.1 uM incubated for 72 hrs by Annexin V-FITC/PI staining based flow cytometric analysis (reference value: 83.4%); type: functional
SMA-560 [14] = experiment: In vivo inhibition of TIE-2 in VM/Dk mouse xenografted with mouse SMA-560 cells assessed as decrease in TIE-2 expression in brain blood vessels at 100 mg/kg,po daily by immunohistochemistry analysis; type: functional, organism-based
SMA-497 [15] = experiment: Antitumor activity against mouse SMA-497 cells xenografted in VM/Dk mouse assessed as decrease in tumor volume at 100 mg/kg,po daily with 12 Gy irradition after 2days of treatment initiation by H and E staining based microscopy; type: functional, organism-based
SMA-497 [16] = experiment: Antitumor activity against mouse SMA-497 cells xenografted in VM/Dk mouse assessed as decrease in number of CD31-positive intra-tumoral vessels in tumor at 100 mg/kg,po daily by immunohistochemistry analysis; type: functional, organism-based
[17] = Toxicity in VM/Dk mouse xenografted with mouse SMA-540 cells assessed as survival rate at 100 mg/kg,po daily (Rvb=>60%); type: organism-based; conditions: in vivo
SMA-497 [18] = experiment: Antitumor activity against mouse SMA-497 cells xenografted in VM/Dk mouse assessed as decrease in tumor volume at 100 mg/kg,po daily by H and E staining based microscopy; type: functional, organism-based
[19] = Toxicity in VM/Dk mouse xenografted with mouse SMA-497 cells assessed as survival rate at 100 mg/kg,po daily (Rvb=14 to 15%); type: organism-based; conditions: in vivo
SMA-540 [20] = experiment: Antitumor activity against mouse SMA-540 cells xenografted in VM/Dk mouse assessed as decrease in tumor volume at 100 mg/kg,po daily by H and E staining based microscopy; type: functional, organism-based
SMA-560 [21] = experiment: Antitumor activity against mouse SMA-560 cells xenografted in VM/Dk mouse assessed as decrease in tumor volume at 100 mg/kg,po daily with 12 Gy irradition after 2days of treatment initiation by H and E staining based microscopy; type: functional, organism-based
SMA-560 [22] = experiment: Antitumor activity against mouse SMA-560 cells xenografted in VM/Dk mouse assessed as increase in number of tumor-infiltrating CD11b positive monocytes/microglia in tumor at 100 mg/kg,po daily with 12 Gy irradition after 2days of treatment initiation by immunohistochemistry analysis; type: functional, organism-based
SMA-540 [23] = experiment: Antitumor activity against mouse SMA-540 cells xenografted in VM/Dk mouse assessed as increase in number of tumor-infiltrating CD11b positive monocytes/microglia in tumor at 100 mg/kg,po daily by immunohistochemistry analysis; type: functional, organism-based
SMA-560 [24] = experiment: Anti-clonogenicic activity in mouse SMA-560 cells assessed as reduction in colony formation at 0.1 to 1 uM preincubated for 6 hrs followed by temozolomide addition and measured after 10 days by MTT based clonogenic survival assay; type: functional, cell-based; conditions: dose 0.1-1 µM, time 246.0 hrs
SMA-540 [25] = experiment: In vivo inhibition of TIE-2 in VM/Dk mouse xenografted with mouse SMA-540 cells assessed as decrease in TIE-2 expression in brain blood vessels at 100 mg/kg,po daily by immunohistochemistry analysis; type: functional, organism-based
SMA-540 [26] = experiment: Anti-clonogenicic activity in mouse SMA-540 cells assessed as reduction in colony formation at 0.001 to 10 uM and measured after 10 days by MTT based clonogenic survival assay; type: functional, cell-based; conditions: dose 0.001-10 µM, time 10.0 day
SMA-497 [27] = experiment: Antitumor activity against mouse SMA-497 cells xenografted in VM/Dk mouse assessed as tumor cell proliferation at 100 mg/kg,po daily by Ki67 staining based immunohistochemistry analysis; type: functional, organism-based
GL261 [28] = experiment: Anti-clonogenicic activity in mouse GL261 cells assessed as reduction in colony formation at 0.001 to 10 uM and measured after 10 days by MTT based clonogenic survival assay; type: functional, cell-based; conditions: dose 0.001-10 µM, time 10.0 day
Angiopoietin-1 receptor = Angiopoietin-1 receptor (Homo sapiens, UniProt Q02763); experiment: Binding affinity to TIE2 (unknown origin) assessed as dissociation constant by KINOME scan assay
Chain of Angiopoietin-1 receptor (Q02763 whole entry): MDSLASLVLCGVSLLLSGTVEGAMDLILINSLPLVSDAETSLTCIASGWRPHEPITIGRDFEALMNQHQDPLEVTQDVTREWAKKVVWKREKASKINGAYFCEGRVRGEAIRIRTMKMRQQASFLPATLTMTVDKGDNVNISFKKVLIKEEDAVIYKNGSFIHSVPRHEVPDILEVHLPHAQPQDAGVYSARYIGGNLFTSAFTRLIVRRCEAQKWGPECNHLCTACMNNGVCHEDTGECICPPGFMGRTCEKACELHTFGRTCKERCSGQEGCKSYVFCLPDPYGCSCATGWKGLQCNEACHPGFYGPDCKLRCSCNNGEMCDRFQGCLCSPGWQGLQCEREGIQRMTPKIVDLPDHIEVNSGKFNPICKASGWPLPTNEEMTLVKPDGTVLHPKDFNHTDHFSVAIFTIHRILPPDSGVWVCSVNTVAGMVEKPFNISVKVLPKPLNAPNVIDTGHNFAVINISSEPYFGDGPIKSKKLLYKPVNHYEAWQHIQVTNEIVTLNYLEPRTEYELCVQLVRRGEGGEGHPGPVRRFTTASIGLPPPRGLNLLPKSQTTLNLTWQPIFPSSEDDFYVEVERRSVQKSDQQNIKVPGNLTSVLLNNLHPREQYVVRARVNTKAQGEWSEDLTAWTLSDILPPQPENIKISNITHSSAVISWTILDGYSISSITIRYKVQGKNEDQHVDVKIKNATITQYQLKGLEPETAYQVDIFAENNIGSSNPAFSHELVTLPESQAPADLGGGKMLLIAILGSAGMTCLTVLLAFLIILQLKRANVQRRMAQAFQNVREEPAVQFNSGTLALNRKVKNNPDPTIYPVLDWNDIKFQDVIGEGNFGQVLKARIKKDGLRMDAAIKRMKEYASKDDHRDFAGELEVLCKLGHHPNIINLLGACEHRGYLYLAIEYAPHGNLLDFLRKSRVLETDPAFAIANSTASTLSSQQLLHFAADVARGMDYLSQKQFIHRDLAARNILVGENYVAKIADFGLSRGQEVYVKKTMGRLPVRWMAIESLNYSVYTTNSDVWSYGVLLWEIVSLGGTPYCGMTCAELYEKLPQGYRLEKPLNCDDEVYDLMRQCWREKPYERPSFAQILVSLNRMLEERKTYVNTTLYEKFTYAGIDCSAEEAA

SMA-560 [29] = experiment: Antitumor activity against mouse SMA-560 cells xenografted in VM/Dk mouse assessed as decrease in number of CD31-positive intra-tumoral vessels in tumor at 100 mg/kg,po daily by immunohistochemistry analysis; type: functional, organism-based

With `Cc1cc(C)c(-n2ccn3nc(-c4cccnc4)cc23)cc1NC(=O)c1cc(C#N)cc(S(F)(F)(F)(F)F)c1` [BAY-826] the Survival [1] was 15%, the Activity (SMA-497 [2]) was 0% and the Activity (GL261 [3]) was “inactive”. The Activity (SMA-560 [4]) was “inactive”, the Activity (SMA-540 [5]) was “inactive” and the Activity (SMA-560 [6]) was 8.81%. For the same compound, the Activity (SMA-560 [7]) was 2%, the inhibition (SMA-497 [8]) was “Active” and the Activity (SMA-560 [9]) was 3%. For the same compound, the Survival [10] was 17%, the Activity (SMA-560 [11]) was “inactive” and the Activity (SMA-497 [12]) was “Active”. The inhibition (Mus musculus) was “Active”, the Activity (SMA-497 [13]) was 91.4% and the inhibition (SMA-560 [14]) was “Active”. The Activity (SMA-497 [15]) was “inactive”, the Activity (SMA-497 [16]) was “inactive” and the Survival [17] was > 60%. For the same compound, the Activity (SMA-497 [18]) was “inactive”, the Survival [19] was 17% and the Activity (SMA-540 [20]) was “inactive”. The Activity (SMA-560 [21]) was “Active”, the Activity (SMA-560 [22]) was “Active” and the Activity (SMA-540 [23]) was “Active”. For the same compound, the Activity (SMA-560 [24]) was “inactive”, the inhibition (SMA-540 [25]) was “Active” and the Activity (SMA-540 [26]) was “inactive”. For the same compound, the Activity (SMA-497 [27]) was “inactive”, the Activity (GL261 [28]) was “inactive” and the Kd (Angiopoietin-1 receptor) was 1.6 nM. The Activity (SMA-560 [29]) was “Active”.
